Assay [1] addresses MAP kinase-interacting serine/threonine-protein kinase 2 (Homo sapiens) (UniProt Q9HBH9). Description: Inhibition of MNK2 at 1 uM relative to control.
The target in assay [2] is Mitogen-activated protein kinase 3 (Homo sapiens) (UniProt P27361). Description: Inhibition of ERK1 at 1 uM relative to control.
The target in assay [3] is Homeodomain-interacting protein kinase 3 (Homo sapiens) (UniProt Q9H422). Description: Inhibition of HIPK3 at 1 uM relative to control.
Assay [4] deals with Homeodomain-interacting protein kinase 2 (Homo sapiens) (UniProt Q9H2X6). The experiment in a line: Inhibition of HIPK2 at 1 uM relative to control.
Sequence of Homeodomain-interacting protein kinase 2 (Homo sapiens) (Q9H2X6 whole entry, looked up): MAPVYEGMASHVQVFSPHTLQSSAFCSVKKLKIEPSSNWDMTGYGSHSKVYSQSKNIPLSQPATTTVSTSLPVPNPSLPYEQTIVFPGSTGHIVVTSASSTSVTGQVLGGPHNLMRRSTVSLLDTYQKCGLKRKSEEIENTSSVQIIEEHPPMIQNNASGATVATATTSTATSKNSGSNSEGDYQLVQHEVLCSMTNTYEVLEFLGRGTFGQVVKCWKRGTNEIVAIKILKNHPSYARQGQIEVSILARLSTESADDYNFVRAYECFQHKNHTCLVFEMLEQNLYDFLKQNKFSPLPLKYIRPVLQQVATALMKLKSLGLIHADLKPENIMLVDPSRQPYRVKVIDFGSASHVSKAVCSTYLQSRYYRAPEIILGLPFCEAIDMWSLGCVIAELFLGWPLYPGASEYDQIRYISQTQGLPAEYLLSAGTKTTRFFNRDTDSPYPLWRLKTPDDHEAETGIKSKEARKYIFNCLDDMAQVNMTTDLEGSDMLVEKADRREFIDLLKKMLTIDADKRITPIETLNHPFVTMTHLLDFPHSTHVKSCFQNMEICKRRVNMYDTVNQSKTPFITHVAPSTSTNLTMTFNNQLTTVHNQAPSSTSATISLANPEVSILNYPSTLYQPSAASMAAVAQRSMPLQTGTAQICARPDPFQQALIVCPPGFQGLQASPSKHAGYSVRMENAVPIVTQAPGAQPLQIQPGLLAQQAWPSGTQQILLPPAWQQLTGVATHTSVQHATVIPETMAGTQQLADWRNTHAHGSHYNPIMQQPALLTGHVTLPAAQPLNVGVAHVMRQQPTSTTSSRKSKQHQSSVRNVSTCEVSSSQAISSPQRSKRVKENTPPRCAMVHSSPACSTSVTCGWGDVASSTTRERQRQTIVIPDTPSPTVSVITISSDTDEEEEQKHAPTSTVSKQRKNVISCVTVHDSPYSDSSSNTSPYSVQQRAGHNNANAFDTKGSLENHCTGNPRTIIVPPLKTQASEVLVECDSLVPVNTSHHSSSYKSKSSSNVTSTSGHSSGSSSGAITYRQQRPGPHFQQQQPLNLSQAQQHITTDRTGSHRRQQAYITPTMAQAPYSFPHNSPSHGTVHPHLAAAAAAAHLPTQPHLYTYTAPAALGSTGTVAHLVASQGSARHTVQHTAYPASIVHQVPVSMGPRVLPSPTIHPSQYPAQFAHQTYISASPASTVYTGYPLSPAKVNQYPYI
The target in assay [5] is [Pyruvate dehydrogenase (acetyl-transferring)] kinase isozyme 1, mitochondrial (Homo sapiens) (UniProt Q15118). Description: Inhibition of PDK1 at 1 uM relative to control.
The target in assay [6] is T1, Mitogen-activated protein kinase 12 (Homo sapiens) (UniProt P53778).
T1 sequence (whole entry): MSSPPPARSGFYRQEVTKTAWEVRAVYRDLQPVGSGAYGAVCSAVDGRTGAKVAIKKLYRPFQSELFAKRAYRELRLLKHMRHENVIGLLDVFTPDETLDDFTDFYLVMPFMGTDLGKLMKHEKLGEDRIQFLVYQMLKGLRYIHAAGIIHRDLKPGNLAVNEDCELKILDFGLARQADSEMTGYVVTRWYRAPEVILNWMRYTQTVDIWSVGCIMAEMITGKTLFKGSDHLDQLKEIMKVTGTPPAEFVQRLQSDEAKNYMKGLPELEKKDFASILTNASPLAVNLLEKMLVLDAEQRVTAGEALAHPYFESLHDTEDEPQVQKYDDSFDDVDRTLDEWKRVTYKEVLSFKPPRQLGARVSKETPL
The experiment in a line: Inhibition of p38-gamma at 1 uM relative to control.

In assay [7] the target is T2, Serine/threonine-protein kinase Nek2 (Homo sapiens) (UniProt P51955).
T2 sequence (whole entry): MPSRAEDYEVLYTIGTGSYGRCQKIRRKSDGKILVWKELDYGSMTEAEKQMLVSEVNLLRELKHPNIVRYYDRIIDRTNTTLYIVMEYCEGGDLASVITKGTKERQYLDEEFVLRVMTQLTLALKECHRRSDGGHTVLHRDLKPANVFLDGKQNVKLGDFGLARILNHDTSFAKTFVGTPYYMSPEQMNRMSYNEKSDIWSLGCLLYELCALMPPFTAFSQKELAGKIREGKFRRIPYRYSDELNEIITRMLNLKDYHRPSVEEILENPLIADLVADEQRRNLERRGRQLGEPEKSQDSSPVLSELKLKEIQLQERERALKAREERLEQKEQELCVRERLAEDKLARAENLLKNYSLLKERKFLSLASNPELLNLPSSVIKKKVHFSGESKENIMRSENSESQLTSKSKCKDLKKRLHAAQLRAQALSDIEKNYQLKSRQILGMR
The experiment in a line: Inhibition of NEK2a at 1 uM relative to control.

Assay [8] has as its target MAP kinase-interacting serine/threonine-protein kinase 1 (Homo sapiens) (UniProt Q9BUB5). The experiment in a line: Inhibition of MNK1 at 1 uM relative to control.
The target of assay [9] is T3, Serine/threonine-protein kinase Chk1 (Homo sapiens) (UniProt O14757).
T3 sequence (whole entry): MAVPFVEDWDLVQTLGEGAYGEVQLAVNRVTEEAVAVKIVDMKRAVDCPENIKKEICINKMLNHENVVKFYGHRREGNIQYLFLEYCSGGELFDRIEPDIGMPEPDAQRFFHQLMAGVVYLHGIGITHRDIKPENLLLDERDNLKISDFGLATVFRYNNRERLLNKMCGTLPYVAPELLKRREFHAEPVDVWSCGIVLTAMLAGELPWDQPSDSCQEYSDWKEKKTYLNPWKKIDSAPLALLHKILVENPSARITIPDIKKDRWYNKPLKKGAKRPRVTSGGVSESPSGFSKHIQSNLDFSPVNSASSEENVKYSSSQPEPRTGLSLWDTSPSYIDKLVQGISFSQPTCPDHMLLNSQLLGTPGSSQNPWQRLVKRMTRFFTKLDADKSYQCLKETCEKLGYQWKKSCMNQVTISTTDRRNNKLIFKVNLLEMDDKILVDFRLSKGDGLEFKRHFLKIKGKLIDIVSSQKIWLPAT
The experiment in a line: Inhibition of CHK1 at 1 uM relative to control.

The target in assay [10] is Myosin light chain kinase, smooth muscle (Homo sapiens) (UniProt Q15746). Description: Inhibition of smooth muscle MLCK at 1 uM relative to control. In kind it is tissue-based. Conditions: Muscle tissue.
Sequence of Myosin light chain kinase, smooth muscle (Homo sapiens) (Q15746 whole entry): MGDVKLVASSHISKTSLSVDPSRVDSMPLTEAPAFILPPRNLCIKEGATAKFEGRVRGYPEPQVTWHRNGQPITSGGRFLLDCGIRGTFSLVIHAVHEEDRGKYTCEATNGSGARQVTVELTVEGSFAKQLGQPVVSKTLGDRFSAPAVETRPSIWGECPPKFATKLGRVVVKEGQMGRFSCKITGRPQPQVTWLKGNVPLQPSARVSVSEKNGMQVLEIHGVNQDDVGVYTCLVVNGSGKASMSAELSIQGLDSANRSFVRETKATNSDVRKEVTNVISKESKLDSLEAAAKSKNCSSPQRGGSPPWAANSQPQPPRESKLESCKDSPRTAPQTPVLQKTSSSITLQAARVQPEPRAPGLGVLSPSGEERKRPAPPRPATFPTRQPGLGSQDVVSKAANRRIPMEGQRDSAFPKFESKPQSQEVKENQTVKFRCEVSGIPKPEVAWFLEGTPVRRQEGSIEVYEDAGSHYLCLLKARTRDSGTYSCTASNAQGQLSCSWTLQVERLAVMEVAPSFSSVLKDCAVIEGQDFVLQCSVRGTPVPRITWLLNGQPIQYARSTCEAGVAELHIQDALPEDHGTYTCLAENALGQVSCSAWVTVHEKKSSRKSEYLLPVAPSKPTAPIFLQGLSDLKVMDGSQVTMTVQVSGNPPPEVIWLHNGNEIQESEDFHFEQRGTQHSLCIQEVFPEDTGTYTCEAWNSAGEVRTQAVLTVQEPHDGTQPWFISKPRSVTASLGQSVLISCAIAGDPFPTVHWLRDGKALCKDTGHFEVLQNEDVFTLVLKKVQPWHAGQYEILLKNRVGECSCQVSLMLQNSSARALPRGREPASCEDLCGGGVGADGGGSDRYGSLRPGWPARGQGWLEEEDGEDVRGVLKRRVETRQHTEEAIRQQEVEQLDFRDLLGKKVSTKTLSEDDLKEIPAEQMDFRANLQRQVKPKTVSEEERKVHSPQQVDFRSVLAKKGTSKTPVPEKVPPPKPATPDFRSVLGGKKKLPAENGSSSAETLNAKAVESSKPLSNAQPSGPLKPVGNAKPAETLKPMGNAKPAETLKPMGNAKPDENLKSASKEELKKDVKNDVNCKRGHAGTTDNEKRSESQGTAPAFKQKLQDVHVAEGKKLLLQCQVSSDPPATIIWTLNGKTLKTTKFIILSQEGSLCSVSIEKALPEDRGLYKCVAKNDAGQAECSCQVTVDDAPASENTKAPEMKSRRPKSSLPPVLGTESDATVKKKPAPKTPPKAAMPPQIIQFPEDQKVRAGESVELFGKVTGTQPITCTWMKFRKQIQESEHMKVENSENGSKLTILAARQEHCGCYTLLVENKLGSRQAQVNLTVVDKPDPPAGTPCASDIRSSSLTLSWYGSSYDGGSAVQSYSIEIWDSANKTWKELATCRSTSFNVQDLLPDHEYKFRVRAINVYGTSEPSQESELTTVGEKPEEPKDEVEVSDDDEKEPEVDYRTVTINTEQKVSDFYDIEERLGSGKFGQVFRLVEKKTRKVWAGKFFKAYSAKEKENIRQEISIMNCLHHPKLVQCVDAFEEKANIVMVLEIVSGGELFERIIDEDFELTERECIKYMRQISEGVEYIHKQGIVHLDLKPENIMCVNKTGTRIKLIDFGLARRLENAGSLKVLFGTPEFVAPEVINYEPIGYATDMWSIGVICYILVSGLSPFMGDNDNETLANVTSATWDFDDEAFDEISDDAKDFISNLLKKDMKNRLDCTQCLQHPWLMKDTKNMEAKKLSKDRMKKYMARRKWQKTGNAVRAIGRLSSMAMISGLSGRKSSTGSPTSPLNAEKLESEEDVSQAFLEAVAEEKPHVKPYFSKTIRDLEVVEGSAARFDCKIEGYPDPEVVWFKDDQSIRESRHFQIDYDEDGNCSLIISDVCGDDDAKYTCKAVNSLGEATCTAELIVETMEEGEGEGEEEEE
The target in assay [11] is Serine/threonine-protein kinase Nek6 (Homo sapiens) (UniProt Q9HC98). Description: Inhibition of NEK6 at 1 uM relative to control.
Sequence of Serine/threonine-protein kinase Nek6 (Homo sapiens) (Q9HC98 whole entry): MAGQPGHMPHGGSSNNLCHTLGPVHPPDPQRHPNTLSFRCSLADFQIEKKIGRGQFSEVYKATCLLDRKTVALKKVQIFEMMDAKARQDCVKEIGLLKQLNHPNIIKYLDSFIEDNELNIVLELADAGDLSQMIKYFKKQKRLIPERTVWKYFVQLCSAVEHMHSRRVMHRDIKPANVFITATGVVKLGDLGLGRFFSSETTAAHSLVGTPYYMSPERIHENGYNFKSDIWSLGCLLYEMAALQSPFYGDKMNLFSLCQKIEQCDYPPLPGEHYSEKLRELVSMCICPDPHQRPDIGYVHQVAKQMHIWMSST
In assay [12] the target is Calcium/calmodulin-dependent protein kinase type 1 (Homo sapiens) (UniProt Q14012). Description: Inhibition of CAMK1 at 1 uM relative to control.
Sequence of Calcium/calmodulin-dependent protein kinase type 1 (Homo sapiens) (Q14012 whole entry, looked up): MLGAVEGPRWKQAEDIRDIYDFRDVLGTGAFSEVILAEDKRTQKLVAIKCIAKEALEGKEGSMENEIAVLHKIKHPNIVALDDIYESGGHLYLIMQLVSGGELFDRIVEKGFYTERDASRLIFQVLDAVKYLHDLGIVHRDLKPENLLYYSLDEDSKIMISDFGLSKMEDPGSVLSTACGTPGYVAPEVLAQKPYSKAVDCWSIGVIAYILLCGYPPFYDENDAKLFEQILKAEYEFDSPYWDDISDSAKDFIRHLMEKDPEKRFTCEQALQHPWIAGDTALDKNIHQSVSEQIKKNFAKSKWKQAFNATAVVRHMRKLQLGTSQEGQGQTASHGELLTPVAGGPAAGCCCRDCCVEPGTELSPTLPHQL
In assay [13] the target is Proto-oncogene tyrosine-protein kinase Src (Homo sapiens) (UniProt P12931). The experiment in a line: Inhibition of Src at 1 uM relative to control.
The target of assay [14] is Ribosomal protein S6 kinase alpha-1 (Homo sapiens) (UniProt Q15418). The experiment in a line: Inhibition of RSK1 at 1 uM relative to control.
The nature of assay [15]: Inhibition of CK2 at 1 uM relative to control.
Assay [16] deals with MAP kinase-activated protein kinase 2 (Homo sapiens) (UniProt P49137). Description: Inhibition of MAPKAP-K2 at 1 uM relative to control.
Sequence of MAP kinase-activated protein kinase 2 (Homo sapiens) (P49137 whole entry, looked up): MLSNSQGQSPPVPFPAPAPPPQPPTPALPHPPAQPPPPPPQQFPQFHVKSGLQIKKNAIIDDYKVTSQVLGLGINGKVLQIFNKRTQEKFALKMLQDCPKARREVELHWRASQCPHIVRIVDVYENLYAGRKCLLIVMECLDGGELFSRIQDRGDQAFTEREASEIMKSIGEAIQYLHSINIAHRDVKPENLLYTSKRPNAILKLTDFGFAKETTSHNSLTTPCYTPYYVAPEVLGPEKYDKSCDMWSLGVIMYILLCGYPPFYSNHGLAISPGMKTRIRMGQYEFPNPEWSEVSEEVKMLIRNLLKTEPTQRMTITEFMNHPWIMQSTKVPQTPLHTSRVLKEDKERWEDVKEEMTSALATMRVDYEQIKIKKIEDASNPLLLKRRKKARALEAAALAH
In assay [17] the target is T4, Dual specificity tyrosine-phosphorylation-regulated kinase 3 (Homo sapiens) (UniProt O43781).
T4 sequence (whole entry): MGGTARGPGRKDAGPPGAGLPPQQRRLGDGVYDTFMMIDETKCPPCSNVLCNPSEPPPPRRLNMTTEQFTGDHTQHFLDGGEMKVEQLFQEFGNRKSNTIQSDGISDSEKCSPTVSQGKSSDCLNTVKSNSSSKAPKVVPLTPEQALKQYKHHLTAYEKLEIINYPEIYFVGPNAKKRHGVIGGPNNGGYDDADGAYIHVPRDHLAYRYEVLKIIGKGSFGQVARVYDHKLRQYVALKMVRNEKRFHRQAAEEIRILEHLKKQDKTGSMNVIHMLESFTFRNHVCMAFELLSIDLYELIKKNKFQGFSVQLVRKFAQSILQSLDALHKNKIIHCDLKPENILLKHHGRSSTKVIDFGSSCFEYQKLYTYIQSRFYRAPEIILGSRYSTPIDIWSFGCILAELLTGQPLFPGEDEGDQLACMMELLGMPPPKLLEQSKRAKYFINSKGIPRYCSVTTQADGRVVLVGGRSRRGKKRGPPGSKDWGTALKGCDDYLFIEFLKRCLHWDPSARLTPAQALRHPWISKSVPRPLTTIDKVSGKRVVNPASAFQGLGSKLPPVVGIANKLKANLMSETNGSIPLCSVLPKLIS
Description: Inhibition of DYRK3 at 1 uM relative to control.

Sequence of Mitogen-activated protein kinase 3 (Homo sapiens) (P27361 whole entry): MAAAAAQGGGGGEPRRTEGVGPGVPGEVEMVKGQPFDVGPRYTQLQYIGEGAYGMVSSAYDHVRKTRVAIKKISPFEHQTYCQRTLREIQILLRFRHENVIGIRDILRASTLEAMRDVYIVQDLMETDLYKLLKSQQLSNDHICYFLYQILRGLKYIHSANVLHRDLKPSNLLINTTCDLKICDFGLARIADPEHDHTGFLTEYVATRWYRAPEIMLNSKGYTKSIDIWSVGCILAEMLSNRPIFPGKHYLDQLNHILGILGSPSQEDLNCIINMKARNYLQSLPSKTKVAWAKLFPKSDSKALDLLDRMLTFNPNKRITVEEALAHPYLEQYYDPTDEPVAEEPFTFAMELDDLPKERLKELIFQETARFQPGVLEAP
Sequence of MAP kinase-interacting serine/threonine-protein kinase 2 (Homo sapiens) (Q9HBH9 whole entry, looked up): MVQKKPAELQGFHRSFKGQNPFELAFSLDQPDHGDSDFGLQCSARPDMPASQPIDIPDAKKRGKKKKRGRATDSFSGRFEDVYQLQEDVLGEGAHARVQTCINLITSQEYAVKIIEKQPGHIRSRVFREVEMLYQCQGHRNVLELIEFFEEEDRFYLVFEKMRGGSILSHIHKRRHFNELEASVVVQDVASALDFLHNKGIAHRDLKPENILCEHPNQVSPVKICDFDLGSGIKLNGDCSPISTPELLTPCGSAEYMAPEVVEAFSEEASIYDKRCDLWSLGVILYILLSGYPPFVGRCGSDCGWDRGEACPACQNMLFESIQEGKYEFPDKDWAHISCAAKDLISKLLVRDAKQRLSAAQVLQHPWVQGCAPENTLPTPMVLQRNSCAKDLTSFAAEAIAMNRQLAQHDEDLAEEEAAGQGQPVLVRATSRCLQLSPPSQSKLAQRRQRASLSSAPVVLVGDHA

With `CSc1cc(Oc2ccnc3[nH]c(=O)[nH]c23)ccc1NC(=O)Nc1cccc(C(F)(F)F)c1`, the residual activity in assay [1] was 100%; in assay [2] it was 100%; in [3], 100%; in [4], 75%; in assay [5], 100%; in [6], 50%. The residual activity was 100% in [7]; 100% in assay [8]; 100% in assay [9]; 100% in assay [10]; 100% in assay [11]; below 25% in assay [12]. Moreover, the residual activity in [13] was below 25%; in assay [14], 100%; in assay [15] it was 100%; in assay [16], 100%; in assay [17], 75%.
As to `O=C(Nc1cc(C(F)(F)F)ccc1F)Nc1ccc(Oc2ccnc3[nH]c(=O)[nH]c23)c2ccccc12`, the residual activity amounted to 100% in assay [1]; 100% in assay [2]; 100% in assay [3]; 100% in assay [4]; 100% in assay [5]; 50% in [6]. The residual activity is 100% in assay [7]; 100% in assay [8]; 100% in assay [9]; 100% in assay [10]; 100% in assay [11]; below 25% in [12]. Also, the residual activity is below 25% in assay [13]; 75% in assay [14]; 100% in assay [15]; 100% in [16]; 100% in assay [17].
Take `CC(C)(C)c1cccc(NC(=O)Nc2ccc(Oc3ccnc4[nH]c(=O)[nH]c34)c3ccccc23)c1`: the residual activity in assay [1] was 100%; in assay [2], 100%; in assay [3], 100%; in assay [4] it was 75%; in assay [5] it was 100%; in assay [6] it was below 25%. Besides, the residual activity in [7], in [8], in assay [9], in assay [10], in [11] and in assay [12] was 75% each time. Also, the residual activity in [13] was below 25%; in assay [14], 75%; in assay [15], 100%; in assay [16], 75%; in assay [17] it was 75%.
